Measured values reported in US6998397B2, “Method for decreasing cholesterol level in blood” (Drebsk Comptech, Inc., priority 2004, dated 2006).

Columns and labels:
[1] = tested on: White rats fed with a standard food and drink diet; assay: Total blood serum cholesterol in rats on normal diet, 36-week intragastrular administration; format: in vivo, rat; settings: 36 weeks
Description: White rats (mails) were fed with a standard food and drink diet. Experimental and control groups (7 animals in each) were formed by randomization using body mass as the principal feature. EBI was administered to the experimental animals intragastrularly as a water solution during 36 weeks. The control group received an equivalent amount of placebo. At the end of each experiment, animals were decapitated under light ether narcosis 18 hours after food withdrawal. Total cholesterol in blood serum was measured enzymatically.

[2] = tested on: rats fed with high-cholesterol diet; assay: Lipid metabolism and redox-vitamins in blood serum of rats under high-cholesterol diet, four-week administration; format: in vivo, rat; settings: 4 weeks; for HDL / LDL / VLDL: blood serum lipoprotein fraction; for HDL / LDL / VLDL / Total cholesterol / Triglycerids / Vitamin A / Vitamin E: high-cholesterol diet; for Total cholesterol / Triglycerids / Vitamin A / Vitamin E: blood serum
Description: Forty white rats (mails) were divided for four groups (ten in each) by randomization using body mass as the principal feature. One group (control) was fed with a normal diet, and three others were fed with a high-cholesterol diet. The latter once received three times per week special food with the following additives: cholesterol (500 mg/kg), vitamin D3 (10000 ME/kg) and pork fat (1000 mg/kg). As a drink, these animals daily received a mixture (1:1) of glucose (5% water solution) and sodium chloride (2.5% water solution). Two groups of animals fed with the high-cholesterol diet received daily a water solution of EBI intragastrularly, and the control group received an equivalent amount of placebo. At the end of each experiment, animals were decapitated under light ether narcosis 18 hours after food withdrawal. Total cholesterol and triglycerides in blood serum were measured enzymatically. Lipoproteins were divided by electrophoresis in agar gel, then dyed with lipid-specific stuff and measured by a direct densitometry. Vitamins A and E were measured by fluorimetric analysis.

[3] = tested on: Volunteers with a high level of cholesterol; assay: Total cholesterol in volunteers with high cholesterol after four-week administration; format: in vivo, human
Description: Volunteers with a high level of cholesterol were selected for clinical study. During the experiment, each patient had their normal personal diet without any special limitations (fats, high-cholesterol food, etc.). All the patients received daily EBI (2.5 mcg) dissolved in ethanol (0.03 ml) and mixed with water (50 ml). Administering the EBI was not adjusted with the meal-receiving time.

Solubility in water = format: physicochemical
Text: Compositions useful for administration of EBI can be easily prepared. The simplest way is the use of water-based solutions. […] Preferable concentrations are laying in the range of 10^−5–10^−6% that corresponds to 0.1–0.01 mcg/ml. […] Other drinkable or eatable forms and non-aqueous carriers may also be used.

mice = settings: acute toxicity; cited from earlier work
rats = settings: acute toxicity; cited from earlier work
[4] = prolonged and chronic experiments; cited from earlier work
[5] = 2 mcg/kg daily, listed as 24-epibrassinolide
[6] = 20 mcg/kg daily, listed as 24-epibrassinolide

CC(C)[C@@H](C)[C@@H](O)[C@H](O)[C@@H](C)[C@H]1CC[C@H]2[C@@H]3COC(=O)[C@H]4C[C@H](O)[C@H](O)C[C@]4(C)[C@H]3CC[C@]12C [EBI, 24-epibrassinolide]
total blood serum cholesterol ([1]; 0.2 mcg/kg intragastrular): 62.17 ± 5.54 mg/deciliter | total blood serum cholesterol, percentage change vs control ([1]; 0.2 mcg/kg intragastrular): −9% | total blood serum cholesterol ([1]; 2 mcg/kg intragastrular): 57.81 ± 6.34 mg/deciliter | total blood serum cholesterol, percentage change vs control ([1]; 2 mcg/kg intragastrular): −15% | total blood serum cholesterol ([1]; 20 mcg/kg intragastrular): 54.25 ± 3.17 mg/deciliter | total blood serum cholesterol, percentage change vs control ([1]; 20 mcg/kg intragastrular): (−20%) | total blood serum cholesterol ([1]; 200 mcg/kg intragastrular): 51.08 ± 5.15 mg/deciliter | total blood serum cholesterol, percentage change vs control ([1]; 200 mcg/kg intragastrular): (−25%) | lower cholesterol (lowering depending on dose) ([1]; normal cholesterol): 9–25% | HDL, percentage related to the high-cholesterol diet ([2]; 2 mcg/kg daily): −1% | LDL, percentage related to the high-cholesterol diet ([2]; 2 mcg/kg daily): 0% | Total cholesterol, percentage related to the high-cholesterol diet ([2]; 2 mcg/kg daily): (−34%) | Triglycerids, percentage related to the high-cholesterol diet ([2]; 2 mcg/kg daily): −58% | VLDL, percentage related to the high-cholesterol diet ([2]; 2 mcg/kg daily): +9% | Vitamin A, percentage related to the high-cholesterol diet ([2]; 2 mcg/kg daily): 16% | Vitamin E, percentage related to the high-cholesterol diet ([2]; 2 mcg/kg daily): 53% | reduction of plasma concentration of total cholesterol vs high-cholesterol diet without EBI ([2]; 2 mcg/kg daily): 34% | reduction of plasma concentration of triglycerides vs high-cholesterol diet without EBI ([2]; 2 mcg/kg daily): 58% | Vitamin A, percentage related to the high-cholesterol diet [2, 5]: +16% | Vitamin E, percentage related to the high-cholesterol diet [2, 5]: (+53%) | HDL, percentage related to the high-cholesterol diet ([2]; 20 mcg/kg daily): 47% | LDL, percentage related to the high-cholesterol diet ([2]; 20 mcg/kg daily): (−11%) | Total cholesterol, percentage related to the high-cholesterol diet ([2]; 20 mcg/kg daily): (−44%) | Triglycerids, percentage related to the high-cholesterol diet ([2]; 20 mcg/kg daily): −68% | VLDL, percentage related to the high-cholesterol diet ([2]; 20 mcg/kg daily): −11% | Vitamin A, percentage related to the high-cholesterol diet ([2]; 20 mcg/kg daily): 30% | Vitamin E, percentage related to the high-cholesterol diet ([2]; 20 mcg/kg daily): 51% | reduction of low-density lipoprotein vs high-cholesterol diet only ([2]; 20 mcg/kg daily): 11% | reduction of plasma concentration of total cholesterol vs high-cholesterol diet only ([2]; 20 mcg/kg daily): 44% | reduction of plasma concentration of triglycerides vs high-cholesterol diet only ([2]; 20 mcg/kg daily): 68% | HDL, percentage related to the high-cholesterol diet [2, 6]: (+47%) | Vitamin A, percentage related to the high-cholesterol diet [2, 6]: (+30%) | Vitamin E, percentage related to the high-cholesterol diet [2, 6]: (+51%) | decrease of VLDL level ([2]; 20 mcg/kg): 11% | HDL ([2]; 2 mcg/kg daily): 19.45 ± 1.14% | LDL ([2]; 2 mcg/kg daily): 75.24 ± 1.23% | VLDL ([2]; 2 mcg/kg daily): 5.31 ± 0.24% | HDL ([2]; 20 mcg/kg daily): 28.72 ± 1.22 % | LDL ([2]; 20 mcg/kg daily): 66.97 ± 1.23 % | VLDL ([2]; 20 mcg/kg daily): 4.33 ± 0.45% | Total cholesterol ([2]; 2 mcg/kg daily): 64.94 ± 5.15 mg/deciliter | Triglycerids ([2]; 2 mcg/kg daily): 0.80 ± 0.09 mmol/L | Vitamin A ([2]; 2 mcg/kg daily): 0.26 ± 0.02 mmol/L | Vitamin E ([2]; 2 mcg/kg daily): 1.90 ± 0.14 mmol/L | Total cholesterol ([2]; 20 mcg/kg daily): 55.04 ± 4.36 mg/deciliter | Triglycerids ([2]; 20 mcg/kg daily): 0.60 ± 0.04 mmol/L | Vitamin A ([2]; 20 mcg/kg daily): 0.29 ± 0.01 mmol/L | Vitamin E ([2]; 20 mcg/kg daily): 1.88 ± 0.10 mmol/L | decrease of total cholesterol ([2]; doses of 2 and 20 mcg/kg): 34–44% | decrease of triglycerides ([2]; doses of 2 and 20 mcg/kg): 58–68% | plasma total cholesterol lower than the starting level, on average ([3]; 6 volunteers with hypercholesterolemia, 2.5 mcg daily, 4 weeks): 38% | Total Cholesterol in Plasma (after 4 weeks) ([3]; humans, 2.5 mcg daily oral, start 287.1 ± 38.8): 177.8 ± 12.3 mg/deciliter | Percentage Change in Cholesterol ([3]; humans, 2.5 mcg daily, 4 weeks, vs start): −38% | solubility in water (Solubility in water): relatively small | LD50 (mice): more than 1000 mg/kg | LD50 (rats): more than 2000 mg/kg | postponed negative effects [4]: no postponed negative effects
